We go through 26 compounds from US12378224B2 (Dong-A Socio Holdings Co., Ltd., priority 2016, dated 2025).

The structures appear in SMILES notation.

human MER (528-end), sequence (Q12866 528-999 limits assumed): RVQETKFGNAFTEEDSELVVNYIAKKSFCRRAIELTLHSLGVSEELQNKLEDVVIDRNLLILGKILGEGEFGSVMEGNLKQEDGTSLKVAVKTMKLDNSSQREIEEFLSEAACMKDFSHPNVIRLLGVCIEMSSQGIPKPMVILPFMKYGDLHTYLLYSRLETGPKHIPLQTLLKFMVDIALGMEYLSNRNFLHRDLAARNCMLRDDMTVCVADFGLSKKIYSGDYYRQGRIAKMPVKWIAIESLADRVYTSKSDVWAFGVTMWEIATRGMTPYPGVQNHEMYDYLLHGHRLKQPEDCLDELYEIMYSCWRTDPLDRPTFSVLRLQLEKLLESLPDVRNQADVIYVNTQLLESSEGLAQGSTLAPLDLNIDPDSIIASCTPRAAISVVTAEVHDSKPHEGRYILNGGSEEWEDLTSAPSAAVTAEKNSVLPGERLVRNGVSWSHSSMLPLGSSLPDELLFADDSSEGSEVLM

This experiment has as its target human MER (528-end) (Homo sapiens (Human), UniProt Q12866). As to the kind of experiment: HTRF Kinase Activity Biochemical Assay (KinEASE-TK). As to conditions: 10 uM ATP. The method, then:
For the SAR (structure-activity relationship) and compound screening, HTRF (Homogeneous Time Resolved Fluorescence) kinase activity assay was employed for all MER, AXL and TYRO3 kinases using Cisbio HTRF® KinEASE™-TK kit (Cisbio, USA). The kit includes biotin-labeled TK substrate, streptavidin-XL665, Eu3+-cryptate-labeled TK antibody and HTRF® Detection buffer. There are two main steps in the kinase assay: kinase reaction and detection of phosphorylated substrate. The reaction was carried out in white low volume 384-well plate (Corning, USA) with 25 nL compound in dimethyl sulfoxide in each well. […] Then the reaction was stopped after 1 hour incubation at room temperature by adding 5 uL of HTRF® Detection buffer which also contains 0.375 nM Eu3+-cryptate-labeled TK antibody and 0.062 uM streptavidin-XL665(SA-XL665) to allow for detection of the phosphorylated peptide product. After 1 h incubation at room temperature, the fluorescence intensity was measured with Envision™ plate reader (PerkinElmer, USA). Upon excitation at 340 nm by UV, the energy from Eu3+ donor of the antibody is transferred to the FRET acceptor XL665, and […] emits light at 665 nm. The level of kinase activity was quantified by the HTRF ratio that calculated from the intensity of emission at 665 nm and emission at 620 nm (fluorescence intensity @ 665 nm/fluorescence intensity @ 620 nm×10,000). The recombinant protein of human MER (528-end) was purchased from Carnabio, Japan. The recombinant human AXL (473-end) and TYRO3 (455-end) were purchased from SignalChem, Canada.
For orientation: TR-FRET usually uses a lanthanide donor and a delayed reading to cut background.
A word on the IC50: it is the concentration that inhibits the measured activity by half. Read a low IC50 as inhibition by little substance. In turn, `CN1CCN(C(=O)Cc2cccc(-c3cccc(C(=O)N4CC[C@@H](NC(=O)c5cc(-c6cnn(C)c6)cnc5N)C4)c3)c2)CC1` [Example 452, (R)-2-amino-5-(1-methyl-1H-pyrazol-4-yl)-N-(1-(3′-(2-(4-methylpiperazin-1-yl)-2-oxoethyl)-[1,1′-biphenyl]-3-carbonyl)pyrrolidin-3-yl)nicotinamide] yielded an IC50 of more than 1 µM.
The figure for `Cn1cc(-c2cnc(N)c(C(=O)N[C@@H]3CCN(C(=O)c4cccc(-c5cccc(C(=O)O)c5)c4)C3)c2)cn1` [Example 456, (R)-3′-(3-(2-amino-5-(1-methyl-1H-pyrazol-4-yl)nicotinamido)pyrrolidine-1-carbonyl)-[1,1′-biphenyl]-3-carboxylic acid] is more than 1 µM; for `Cc1ccc(C(=O)N2CC[C@@H](NC(=O)c3cc(-c4cnn(C)c4)cnc3N)C2)cc1-c1cccc(Cl)c1` [Example 484, (R)-2-amino-N-(1-(3′-chloro-6-methyl-[1,1′-biphenyl]-3-carbonyl)pyrrolidin-3-yl)-5-(1-methyl-1H-pyrazol-4-yl)nicotinamide] it is more than 1 µM.
Then `Cn1cc(-c2cnc(N)c(C(=O)N[C@@H]3CCN(C(=S)Nc4ccc(Cl)c(Cl)c4)C3)c2)cn1` [Example 44, (R)-2-amino-N-(1-((3,4-dichlorophenyl)carbamothioyl)pyrrolidin-3-yl)-5-(1-methyl-1H-pyrazol-4-yl)nicotinamide], with more than 1 µM; and `Cn1cc(-c2cnc(N)c(C(=O)N[C@@H]3CCN(C(=O)Oc4ccc(N)c(Cl)c4)C3)c2)cn1` [Example 89, 4-amino-3-chlorophenyl (R)-3-(2-amino-5-(1-methyl-1H-pyrazol-4-yl)nicotinamido)pyrrolidine-1-carboxylate], with more than 1 µM; and `Cn1cc(-c2cnc(N)c(C(=O)N[C@@H]3CCN(C(=O)OC4CCCCC4)C3)c2)cn1` [Example 66, cyclohexyl (R)-3-(2-amino-5-(1-methyl-1H-pyrazol-4-yl)nicotinamido)pyrrolidine-1-carboxylate], with more than 1 µM.
`Cn1cc(-c2cnc(N)c(C(=O)N[C@@H]3CCN(C(=O)Oc4cccc(-c5ccc(CN6CCC[C@@H]6CO)cc5)c4)C3)c2)cn1` [Example 324, 4′-(((R)-2-(hydroxymethyl)pyrrolidin-1-yl)methyl)-[1,1′-biphenyl]-3-yl (R)-3-(2-amino-5-(1-methyl-1H-pyrazol-4-yl)nicotinamido)pyrrolidine-1-carboxylate] displayed an IC50 of 0.1 to 1 µM.
With `Cn1cc(-c2cnc(N)c(C(=O)N[C@@H]3CCN(C(=O)Oc4cccc(O)c4)C3)c2)cn1` [Example 101, 3-hydroxyphenyl (R)-3-(2-amino-5-(1-methyl-1H-pyrazol-4-yl)nicotinamido)pyrrolidine-1-carboxylate], the IC50 is more than 1 µM.
Then `Cn1cc(-c2cnc(N)c(C(=O)N[C@@H]3CCN(C(=O)c4cccc(-c5cccc(NS(C)(=O)=O)c5)c4)C3)c2)cn1` [Example 481, (R)-2-amino-5-(1-methyl-1H-pyrazol-4-yl)-N-(1-(3′-(methylsulfonamido)-[1,1′-biphenyl]-3-carbonyl)pyrrolidin-3-yl)nicotinamide], with more than 1 µM.
As to `Cn1cc(-c2cnc(N)c(C(=O)N[C@@H]3CCN(C(=O)Oc4cccc(OCc5ccccc5)c4)C3)c2)cn1` [Example 59, 3-(benzyloxy)phenyl (R)-3-(2-amino-5-(1-methyl-1H-pyrazol-4-yl)nicotinamido)pyrrolidine-1-carboxylate], the IC50 is more than 1 µM.
For the compound `Cn1cc(-c2cnc(N)c(C(=O)N[C@@H]3CCN(C(=O)Oc4cccc(-c5ccc(CN[C@@H]6CCNC6)cc5)c4)C3)c2)cn1` [Example 313, 4′-((((R)-pyrrolidin-3-yl)amino)methyl)-[1,1′-biphenyl]-3-yl (R)-3-(2-amino-5-(1-methyl-1H-pyrazol-4-yl)nicotinamido)pyrrolidine-1-carboxylate], the IC50 fell in the range of 0.1 to 1 µM.
`Cn1cc(-c2cnc(N)c(C(=O)N[C@@H]3CCN(C(=O)c4ccc(-c5cc(Cl)c(F)c(Cl)c5)cc4)C3)c2)cn1` [Example 664, (R)-2-amino-N-(1-(3′,5′-dichloro-4′-fluoro-[1,1′-biphenyl]-4-carbonyl)pyrrolidin-3-yl)-5-(1-methyl-1H-pyrazol-4-yl)nicotinamide] had a 50% inhibitory concentration (IC50) of 0.1 to 1 µM.
For the compound `Cn1cc(-c2cnc(N)c(C(=O)N[C@@H]3CCN(C(=O)c4ccc(-c5ccc(N6CCOCC6)cc5)cc4)C3)c2)cn1` [Example 492, (R)-2-amino-5-(1-methyl-1H-pyrazol-4-yl)-N-(1-(4′-morpholino-[1,1′-biphenyl]-4-carbonyl)pyrrolidin-3-yl)nicotinamide], the IC50 was more than 1 µM.
In turn, `Cn1cc(-c2cnc(N)c(C(=O)N[C@@H]3CCN(C(=O)c4cccc(-c5ccnc(N6CCNCC6)c5)c4)C3)c2)cn1` [Example 480, (R)-2-amino-5-(1-methyl-1H-pyrazol-4-yl)-N-(1-(3-(2-(piperazin-1-yl)pyridin-4-yl)benzoyl)pyrrolidin-3-yl)nicotinamide] had a half-inhibitory concentration (IC50) of more than 1 µM.
The compound `Cn1cc(-c2cnc(N)c(C(=O)N[C@@H]3CCN(C(=O)c4ccc(-c5ccc(CN6CCC(N)CC6)cc5)cc4)C3)c2)cn1` [Example 547, (R)-2-amino-N-(1-(4′-((4-aminopiperidin-1-yl)methyl)-[1,1′-biphenyl]-4-carbonyl)pyrrolidin-3-yl)-5-(1-methyl-1H-pyrazol-4-yl)nicotinamide] came in with an IC50 of 0.1 to 1 µM.
Compound `COc1cc(Br)ccc1OC(=O)N1CC[C@@H](NC(=O)c2cc(-c3cnn(C)c3)cnc2N)C1` [Example 63, 4-bromo-2-methoxyphenyl (R)-3-(2-amino-5-(1-methyl-1H-pyrazol-4-yl)nicotinamido)pyrrolidine-1-carboxylate] came in with an IC50 of more than 1 µM.
`Nc1ncc(-c2ccc(CO)cc2)cc1C(=O)N[C@@H]1CCN(C(=O)Nc2cccc(-c3ccccc3)c2)C1` [Example 256, (R)—N-(1-([1,1′-biphenyl]-3-ylcarbamoyl)pyrrolidin-3-yl)-2-amino-5-(4-(hydroxymethyl)phenyl)nicotinamide] gave an IC50 of 0.1 to 1 µM.
Then `Cc1onc(N)c1-c1ccc(C(=O)N2CC[C@@H](NC(=O)c3cc(-c4cnn(C)c4)cnc3N)C2)cc1` [Example 540, (R)-2-amino-N-(1-(4-(3-amino-5-methylisoxazol-4-yl)benzoyl)pyrrolidin-3-yl)-5-(1-methyl-1H-pyrazol-4-yl)nicotinamide], with more than 1 µM.
Then `Nc1ncc(-c2cnn(C3CCNCC3)c2)cc1C(=O)N[C@@H]1CCN(Cc2ccc(F)cc2)C1` [Example 153, (R)-2-amino-N-(1-(4-fluorobenzyl)pyrrolidin-3-yl)-5-(1-(piperidin-4-yl)-1H-pyrazol-4-yl)nicotinamide], with 0.1 to 1 µM; and `Cn1cc(-c2cnc(N)c(C(=O)N[C@@H]3CCN(C(=O)Oc4ccc(Oc5ccc([N+](=O)[O-])cc5)cc4)C3)c2)cn1` [Example 111, 4-(4-nitrophenoxy)phenyl (R)-3-(2-amino-5-(1-methyl-1H-pyrazol-4-yl)nicotinamido)pyrrolidine-1-carboxylate], with more than 1 µM.
Consider `Cc1cc(OC(=O)N2CC[C@@H](NC(=O)c3cc(-c4cnn(C)c4)cnc3N)C2)ccc1Cl` [Example 86, 4-chloro-3-methylphenyl (R)-3-(2-amino-5-(1-methyl-1H-pyrazol-4-yl)nicotinamido)pyrrolidine-1-carboxylate], for which the half-maximal inhibitory concentration (IC50) is more than 1 µM.
For `Cn1cc(-c2cnc(N)c(C(=O)N[C@@H]3CCN(C(=O)c4ccc(-c5cnn(C6CCNCC6)c5)cc4)C3)c2)cn1` [Example 510, (R)-2-amino-5-(1-methyl-1H-pyrazol-4-yl)-N-(1-(4-(1-(piperidin-4-yl)-1H-pyrazol-4-yl)benzoyl)pyrrolidin-3-yl)nicotinamide], the IC50 was more than 1 µM.
Consider `Cc1ccc(C)c(CN2CC[C@@H](NC(=O)c3cc(-c4cnn(C5CCNCC5)c4)cnc3N)C2)c1` [Example 166, (R)-2-amino-N-(1-(2,5-dimethylbenzyl)pyrrolidin-3-yl)-5-(1-(piperidin-4-yl)-1H-pyrazol-4-yl)nicotinamide], for which the IC50 is more than 1 µM.
The figure for `CN(C(=O)c1cc(-c2cnn(C)c2)cnc1N)[C@@H]1CCN(C(=O)Oc2cccc(-c3ccccc3)c2)C1` [Example 130, [1,1′-biphenyl]-3-yl (R)-3-(2-amino-N-methyl-5-(1-methyl-1H-pyrazol-4-yl)nicotinamido)pyrrolidine-1-carboxylate] is more than 1 µM.
The figure for `Cn1cc(-c2cnc(N)c(C(=O)N[C@@H]3CCN(C(=O)c4ccc(-c5cnn(C6CCOCC6)c5)cc4)C3)c2)cn1` [Example 509, (R)-2-amino-5-(1-methyl-1H-pyrazol-4-yl)-N-(1-(4-(1-(tetrahydro-2H-pyran-4-yl)-1H-pyrazol-4-yl)benzoyl)pyrrolidin-3-yl)nicotinamide] is more than 1 µM.
Then `Cn1cc(-c2cnc(N)c(C(=O)N[C@@H]3CCN(C(=O)c4cccc(-c5cnn(C6CCCC6)c5)c4)C3)c2)cn1` [Example 470, (R)-2-amino-N-(1-(3-(1-cyclopentyl-1H-pyrazol-4-yl)benzoyl)pyrrolidin-3-yl)-5-(1-methyl-1H-pyrazol-4-yl)nicotinamide], with more than 1 µM.
